In brackets after ≈: the same amount, converted by molar mass.
How the values were obtained:
Test in all cases: Antimicrobial activity, MIC against pneumococci (agar dilution)
Format in all cases: cell-based
S. pneumoniae PRC-206 = settings: inoculum 10^6 CFU/ml; for minimal inhibitory concentration (MIC): sensitivity disk agar-N+5% horse blood; for MIC: Streptococcus pneumoniae, PRC206, sensitivity disk agar-N+5% horse blood, read-out: minimal inhibitory concentration (MIC)
Method: (§1) For representative compounds among lincomycin derivatives according to the present invention, the minimal inhibitory concentration (MIC, μg/ml) against various pneumococci was measured according to the method described in CHEMOTHERAPY, vol. 16, No. 1, 99, 1968. Sensitivity disk agar-N+5% horse blood was used as the medium for the measurement. The amount of bacteria inoculated was 10^6 CFU/ml.

S. pneumoniae DPI Type[…] = settings: for minimal inhibitory concentration (MIC): S. pneumoniae DPI Type[…], sensitivity disk agar-N+5% horse blood, inoculum 10^6 CFU/ml; for MIC: Streptococcus pneumoniae, read-out: minimal inhibitory concentration (MIC)
Method: as §1

S. pneumoniae TH-96 = settings: inoculum 10^6 CFU/ml; for minimal inhibitory concentration (MIC): sensitivity disk agar-N+5% horse blood; for MIC: Streptococcus pneumoniae, TH96, sensitivity disk agar-N+5% horse blood, read-out: minimal inhibitory concentration (MIC)
Method: as §1

S. pneumoniae 1820 = settings: sensitivity disk agar-N+5% horse blood, inoculum 10^6 CFU/ml; for MIC: Streptococcus pneumoniae, read-out: minimal inhibitory concentration (MIC)
Method: as §1

S. pneumoniae IP692 = settings: sensitivity disk agar-N+5% horse blood, inoculum 10^6 CFU/ml; for MIC: Streptococcus pneumoniae, read-out: minimal inhibitory concentration (MIC)
Method: as §1

S. pneumoniae TH-662 = settings: inoculum 10^6 CFU/ml; for minimal inhibitory concentration (MIC): sensitivity disk agar-N+5% horse blood; for MIC: Streptococcus pneumoniae, TH662, sensitivity disk agar-N+5% horse blood, read-out: minimal inhibitory concentration (MIC)
Method: as §1

S. pneumoniae PRC0-91 = settings: inoculum 10^6 CFU/ml; for minimal inhibitory concentration (MIC): sensitivity disk agar-N+5% horse blood
Method: as §1

S. pneumoniae PRC-53 = settings: inoculum 10^6 CFU/ml; for minimal inhibitory concentration (MIC): sensitivity disk agar-N+5% horse blood; for MIC: Streptococcus pneumoniae, PRC53, sensitivity disk agar-N+5% horse blood, read-out: minimal inhibitory concentration (MIC)
Method: as §1

S. pneumoniae 225 = settings: sensitivity disk agar-N+5% horse blood, inoculum 10^6 CFU/ml; for MIC: Streptococcus pneumoniae, read-out: minimal inhibitory concentration (MIC)
Method: as §1

S. pneumoniae 1913 = settings: sensitivity disk agar-N+5% horse blood, inoculum 10^6 CFU/ml; for MIC: Streptococcus pneumoniae, read-out: minimal inhibitory concentration (MIC)
Method: as §1

CCCC1CC(C(=O)NC(C(C)Sc2ccc(N(C)C(=O)COC)cc2)C2OC(SC)C(O)C(O)C2O)N(C)C1 (stereo not drawn) [Compound 170, 7-Deoxy-7-epi-7-(4-(methoxy-N-methylacetamido)phenylthio)-lincomycin]
minimal inhibitory concentration (MIC) (S. pneumoniae PRC-206): 16 µg/mL (≈ 26.7 µM) | minimal inhibitory concentration (MIC) (S. pneumoniae DPI Type[…]): 0.13 µg/mL (≈ 0.217 µM) | minimal inhibitory concentration (MIC) (S. pneumoniae TH-96): 0.13 µg/mL (≈ 0.217 µM) | minimal inhibitory concentration (MIC) (S. pneumoniae 1820): 8 µg/mL (≈ 13.3 µM) | minimal inhibitory concentration (MIC) (S. pneumoniae IP692): 0.13 µg/mL (≈ 0.217 µM) | minimal inhibitory concentration (MIC) (S. pneumoniae TH-662): 8 µg/mL (≈ 13.3 µM) | minimal inhibitory concentration (MIC) (S. pneumoniae PRC0-91): 8 µg/mL (≈ 13.3 µM) | minimal inhibitory concentration (MIC) (S. pneumoniae PRC-53): 0.13 µg/mL (≈ 0.217 µM) | minimal inhibitory concentration (MIC) (S. pneumoniae 225): 128 µg/mL (≈ 213 µM) | minimal inhibitory concentration (MIC) (S. pneumoniae 1913): 0.13 µg/mL (≈ 0.217 µM)

CCC[C@@H]1C[C@@H](C(=O)N[C@@H]([C@H]2O[C@H](SC)[C@H](O)[C@@H](O)[C@H]2O)[C@H](C)Sc2ccc(NC(=O)CC)cn2)N(C)C1 [Compound 191, 7-Deoxy-7-epi-7-(5-(propionamido)pyridin-2-ylthio)-lincomycin]
minimal inhibitory concentration (MIC) (S. pneumoniae PRC-206): 8 µg/mL (≈ 14 µM) | minimal inhibitory concentration (MIC) (S. pneumoniae DPI Type[…]): 0.015 µg/mL (≈ 0.0263 µM) | minimal inhibitory concentration (MIC) (S. pneumoniae TH-96): 0.03 µg/mL (≈ 0.0526 µM) | minimal inhibitory concentration (MIC) (S. pneumoniae 1820): 4 µg/mL (≈ 7.01 µM) | minimal inhibitory concentration (MIC) (S. pneumoniae IP692): 0.015 µg/mL (≈ 0.0263 µM) | minimal inhibitory concentration (MIC) (S. pneumoniae PRC0-91): 2 µg/mL (≈ 3.5 µM) | minimal inhibitory concentration (MIC) (S. pneumoniae PRC-53): 0.03 µg/mL (≈ 0.0526 µM) | minimal inhibitory concentration (MIC) (S. pneumoniae 225): 32 µg/mL (≈ 56.1 µM) | minimal inhibitory concentration (MIC) (S. pneumoniae 1913): 0.015 µg/mL (≈ 0.0263 µM)

CCCC1CC(C(=O)NC(C(C)Sc2nnc(NC(=O)COC)s2)C2OC(SC)C(O)C(O)C2O)N(C)C1 (stereo not drawn) [Compound 195, 7-Deoxy-7-epi-7-(5-(2-methoxyacetamido)-1,3,4-thiadiazol-2-ylthio)lincomycin]
minimal inhibitory concentration (MIC) (S. pneumoniae PRC-206): 64 µg/mL (≈ 108 µM) | minimal inhibitory concentration (MIC) (S. pneumoniae DPI Type[…]): 0.06 µg/mL (≈ 0.101 µM) | minimal inhibitory concentration (MIC) (S. pneumoniae TH-96): 0.06 µg/mL (≈ 0.101 µM) | minimal inhibitory concentration (MIC) (S. pneumoniae 1820): 16 µg/mL (≈ 26.9 µM) | minimal inhibitory concentration (MIC) (S. pneumoniae IP692): 0.03 µg/mL (≈ 0.0505 µM) | minimal inhibitory concentration (MIC) (S. pneumoniae TH-662): 8 µg/mL (≈ 13.5 µM) | minimal inhibitory concentration (MIC) (S. pneumoniae PRC0-91): 8 µg/mL (≈ 13.5 µM) | minimal inhibitory concentration (MIC) (S. pneumoniae PRC-53): 0.06 µg/mL (≈ 0.101 µM) | minimal inhibitory concentration (MIC) (S. pneumoniae 225): 64 µg/mL (≈ 108 µM) | minimal inhibitory concentration (MIC) (S. pneumoniae 1913): 0.13 µg/mL (≈ 0.219 µM)

CCC[C@@H]1C[C@@H](C(=O)N[C@@H]([C@H]2O[C@H](SC)[C@H](O)[C@@H](O)[C@H]2O)[C@H](C)Sc2ccc(C(=O)N3CCCC3)cc2)N(C)C1 [Compound 228, 7-Deoxy-7-epi-7-(4-(pyrrolidino-carbonyl)phenylthio)lincomycin]
minimal inhibitory concentration (MIC) (S. pneumoniae PRC-206): 4 µg/mL (≈ 6.71 µM) | minimal inhibitory concentration (MIC) (S. pneumoniae DPI Type[…]): 0.13 µg/mL (≈ 0.218 µM) | minimal inhibitory concentration (MIC) (S. pneumoniae 1820): 4 µg/mL (≈ 6.71 µM) | minimal inhibitory concentration (MIC) (S. pneumoniae IP692): 0.06 µg/mL (≈ 0.101 µM) | minimal inhibitory concentration (MIC) (S. pneumoniae TH-662): 2 µg/mL (≈ 3.36 µM) | minimal inhibitory concentration (MIC) (S. pneumoniae PRC0-91): 2 µg/mL (≈ 3.36 µM) | minimal inhibitory concentration (MIC) (S. pneumoniae PRC-53): 0.06 µg/mL (≈ 0.101 µM) | minimal inhibitory concentration (MIC) (S. pneumoniae 225): 16 µg/mL (≈ 26.9 µM) | minimal inhibitory concentration (MIC) (S. pneumoniae 1913): 0.13 µg/mL (≈ 0.218 µM)

CCC[C@@H]1C[C@@H](C(=O)N[C@@H](C2OC(SC)C(O)C(O)C2O)[C@H](C)SCc2ccc(C(=O)N3CCCCC3)cc2)N(C)C1 (stereo partly drawn) [Compound 235, 7-Deoxy-7-epi-7-(4-(piperidino-carbonyl)benzylthio)lincomycin]
MIC (S. pneumoniae PRC-206): 4 µg/mL (≈ 6.41 µM) | MIC (S. pneumoniae DPI Type[…]): 0.015 µg/mL (≈ 0.024 µM) | MIC (S. pneumoniae TH-96): 0.03 µg/mL (≈ 0.0481 µM) | MIC (S. pneumoniae 1820): 8 µg/mL (≈ 12.8 µM) | MIC (S. pneumoniae IP692): 0.015 µg/mL (≈ 0.024 µM) | MIC (S. pneumoniae TH-662): 1 µg/mL (≈ 1.6 µM) | MIC (S. pneumoniae PRC-53): 0.03 µg/mL (≈ 0.0481 µM) | MIC (S. pneumoniae 225): 32 µg/mL (≈ 51.3 µM) | MIC (S. pneumoniae 1913): 0.03 µg/mL (≈ 0.0481 µM)

CCC[C@H]1CN[C@H](C(=O)N[C@@H]([C@H]2O[C@H](SC)[C@H](O)[C@@H](O)[C@H]2O)[C@H](C)Sc2nnc(-c3sccc3N)s2)C1 [Compound 304, 7-(5-(3-Aminothiophen-2-yl)-1,3,4-thiadiazol-2-ylthio)-1′-demethyl-7-deoxy-7-epilincomycin]
minimal inhibitory concentration (MIC) (S. pneumoniae PRC-206): 4 µg/mL (≈ 6.78 µM) | minimal inhibitory concentration (MIC) (S. pneumoniae DPI Type[…]): 0.13 µg/mL (≈ 0.22 µM) | minimal inhibitory concentration (MIC) (S. pneumoniae TH-96): 0.13 µg/mL (≈ 0.22 µM) | minimal inhibitory concentration (MIC) (S. pneumoniae 1820): 4 µg/mL (≈ 6.78 µM) | minimal inhibitory concentration (MIC) (S. pneumoniae IP692): 0.13 µg/mL (≈ 0.22 µM) | minimal inhibitory concentration (MIC) (S. pneumoniae TH-662): 2 µg/mL (≈ 3.39 µM) | minimal inhibitory concentration (MIC) (S. pneumoniae PRC0-91): 2 µg/mL (≈ 3.39 µM) | minimal inhibitory concentration (MIC) (S. pneumoniae PRC-53): 0.13 µg/mL (≈ 0.22 µM) | minimal inhibitory concentration (MIC) (S. pneumoniae 225): 16 µg/mL (≈ 27.1 µM) | minimal inhibitory concentration (MIC) (S. pneumoniae 1913): 0.13 µg/mL (≈ 0.22 µM)

CCC[C@@H]1CCN[C@H](C(=O)N[C@@H]([C@H]2O[C@H](SC)[C@H](O)[C@@H](O)[C@H]2O)[C@H](C)Sc2ncc(C(=O)OCC)c(N)n2)C1 [Compound 364, Methyl 7-(4-amino-5-ethoxycarbonylpyrimidin-2-ylthio)-7-deoxy-7-epi-6-N-((2S,4R)-4-propyl)pipecoloyl-1-thio-α-lincosamide]
minimal inhibitory concentration (MIC) (S. pneumoniae PRC-206): 4 µg/mL (≈ 6.81 µM) | minimal inhibitory concentration (MIC) (S. pneumoniae DPI Type[…]): 0.13 µg/mL (≈ 0.221 µM) | minimal inhibitory concentration (MIC) (S. pneumoniae TH-96): 0.06 µg/mL (≈ 0.102 µM) | minimal inhibitory concentration (MIC) (S. pneumoniae 1820): 4 µg/mL (≈ 6.81 µM) | minimal inhibitory concentration (MIC) (S. pneumoniae IP692): 0.13 µg/mL (≈ 0.221 µM) | minimal inhibitory concentration (MIC) (S. pneumoniae TH-662): 2 µg/mL (≈ 3.4 µM) | minimal inhibitory concentration (MIC) (S. pneumoniae PRC-53): 0.03 µg/mL (≈ 0.051 µM) | minimal inhibitory concentration (MIC) (S. pneumoniae 225): 4 µg/mL (≈ 6.81 µM) | minimal inhibitory concentration (MIC) (S. pneumoniae 1913): 0.13 µg/mL (≈ 0.221 µM)

CC[C@@H]1CCN(C)[C@H](C(=O)N[C@@H]([C@H]2O[C@H](SC)[C@H](O)[C@@H](O)[C@H]2O)[C@H](C)Sc2nnc(-c3ccc(F)cc3[N+](=O)[O-])s2)C1 [Compound 396, Methyl 7-deoxy-7-epi-7-(5-(4-fluoro-2-nitrophenyl)-1,3,4-thiadiazol-2-ylthio)-6-N-((2S,4R)-1-N-methyl-4-ethyl)pipecoloyl-1-thio-α-lincosamide]
minimal inhibitory concentration (MIC) (S. pneumoniae PRC-206): 64 µg/mL (≈ 99.1 µM) | minimal inhibitory concentration (MIC) (S. pneumoniae DPI Type[…]): 0.015 µg/mL (≈ 0.0232 µM) | minimal inhibitory concentration (MIC) (S. pneumoniae TH-96): 0.015 µg/mL (≈ 0.0232 µM) | minimal inhibitory concentration (MIC) (S. pneumoniae 1820): 16 µg/mL (≈ 24.8 µM) | minimal inhibitory concentration (MIC) (S. pneumoniae IP692): 0.008 µg/mL (≈ 0.0124 µM) | minimal inhibitory concentration (MIC) (S. pneumoniae TH-662): 8 µg/mL (≈ 12.4 µM) | minimal inhibitory concentration (MIC) (S. pneumoniae PRC0-91): 4 µg/mL (≈ 6.19 µM) | minimal inhibitory concentration (MIC) (S. pneumoniae PRC-53): 0.015 µg/mL (≈ 0.0232 µM) | minimal inhibitory concentration (MIC) (S. pneumoniae 225): >128 µg/mL | minimal inhibitory concentration (MIC) (S. pneumoniae 1913): 0.008 µg/mL (≈ 0.0124 µM)

CCC[C@@H]1C[C@@H](C(=O)N[C@H](C2OC(SC)C(O)C(O)C2O)[C@@H](C)Sc2ccc(-c3cccnc3[N+](=O)[O-])cc2)N(C)C1 (stereo partly drawn) [Compound 446, 7-Deoxy-7-epi-7-(4-(2-nitropyridin-3-yl)phenylthio)-lincomycin]
MIC (S. pneumoniae PRC-206): 8 µg/mL (≈ 12.9 µM) | MIC (S. pneumoniae DPI Type[…]): 0.03 µg/mL (≈ 0.0483 µM) | MIC (S. pneumoniae TH-96): 0.015 µg/mL (≈ 0.0242 µM) | MIC (S. pneumoniae 1820): 4 µg/mL (≈ 6.44 µM) | MIC (S. pneumoniae IP692): 0.03 µg/mL (≈ 0.0483 µM) | MIC (S. pneumoniae TH-662): 2 µg/mL (≈ 3.22 µM) | MIC (S. pneumoniae PRC0-91; Streptococcus pneumoniae, PRC091, sensitivity disk agar-N+5% horse blood, read-out: minimal inhibitory concentration (MIC)): 4 µg/mL (≈ 6.44 µM) | MIC (S. pneumoniae PRC-53): 0.015 µg/mL (≈ 0.0242 µM) | MIC (S. pneumoniae 225): 64 µg/mL (≈ 103 µM) | MIC (S. pneumoniae 1913): 0.03 µg/mL (≈ 0.0483 µM)
